From US12435069B2, “Cocrystals of posaconazole, methods of making and using same” (REGENTS OF THE UNIVERSITY OF MICHIGAN, priority 2019, dated 2025)
Values after ≈ are worked out from the molar mass of the structure shown. Values joined by “and” are separate entries in the source; they are usually repeats but may differ in a detail not shown here. Equal entries are not always repeated. Where two headings read alike, the source gives them in different places.

Columns and labels:
[1] = cited from earlier work
[2] = Dissolution of drug or cocrystal in biorelevant media (FaSSIF, FeSSIF); format: physicochemical; conditions: for Cmax / AUC (area under the dissolution curve): 25 °C; for Cmax: 150 rpm, 3 h, 300 mg dose in 250 mL equivalent; for AUC (area under the dissolution curve): up to 180 min; for Final pH: after dissolution
Procedure: (§1) Blank FaSSIF (pH 6.50 phosphate buffer) was prepared at room temperature by dissolving 0.683 g of NaOH (pellets), 7.902 g of NaH2PO4·H2O, and 12.372 g NaCl in 2 L of purified deionized (DI) water. The pH was adjusted to 6.50 (±0.04) with 1 M NaOH and 1 M HCl solutions. Blank FeSSIF (pH 5.00 acetate buffer) was prepared at room temperature by dissolving 8.089 g NaOH (pellets), 16.4 mL acetic acid, and 23.748 g NaCl in 2 L of purified DI water. The pH was adjusted to 5.00 (±0.03) with 1 M NaOH and 1 M HCl solutions. FaSSIF and FeSSIF media were prepared by dissolving appropriate amounts of FaSSIF/FeSSIF powder in the blank media according to the manufacturer, then stored at room temperature and used within 48 hours. Blank FaSSGF (pH 1.60 buffer) was prepared at room temperature by dissolving 1.999 g of sodium chloride in 1 L of DI water. The pH was adjusted to 1.60 (±0.05) with 2 M HCl solution.
Dissolution studies of drug or cocrystal were conducted using an overhead stirrer with a glass propeller at 150 rpm over three hours. Based on a 300 mg dose in 250 mL, 36 mg of PSZ drug or 46.6 mg PSZ-4ABA cocrystal (molar equivalent PSZ amount) were added to 30 mL of dissolution media. Dissolution studies were done in FaSSIF and FeSSIF with sieved fractions of drug and cocrystals in a particle size range of 106 to 125 μm. The dissolution experiments were conducted in a water bath at 25.0 (±0.5) ° C. Initial and final solution pH was measured. Aliquots of 0.5 mL were taken with a syringe at time points up to 180 minutes. The solution samples were filtered through syringe filter with PvDF membrane of a pore size of 0.45 μm. The solution concentrations of drug and coformer were analyzed with a Waters HPLC equipped with a photodiode array UV detector. A Waters Atlantis C18 column with the dimension of 5 μm, 250×4.6 mm was used for separation. A gradient method using methanol and water with 0.1% trifluoroacetic acid was run with the flow rate set at 1 mL/min. […] The wavelengths used for the analytes were […] for PSZ, and 287 nm for 4ABA.

[3] = in vivo; cited from earlier work
[4] = Cocrystal eutectic constant (Keu): coformer and drug concentrations at the eutectic point in buffers and biorelevant media; format: physicochemical; conditions: for solubility: thermodynamic from solid, read-out: [PSZ]eu (also solubility of drug at equilibrium); for solubility / Keu ([coformer]eu/[drug]eu) / [4ABA]eu (coformer concentration at the eutectic point): 25 °C
Procedure: as §1
Cocrystal eutectic constant (Keu), which is well recognized as a key stability and solubility indicator, was determined from measurement of coformer and drug concentrations at the eutectic point, where drug and cocrystal solid phases are in equilibrium with solution according to Keu=[coformer]eu/[drug]eu. An excess amount of PSZ (approximately 200 mg) and 150 mg of PSZ-4ABA were suspended in 3 mL of blank FaSSGF, blank FaSSIF, blank FeSSIF, FaSSIF, or FeSSIF media. Biorelevant media included FaSSIF and FeSSIF. Blank media was the buffer solution in the biorelevant media without the lecithin and bile salt. The suspensions were kept in a water bath at 25.0±0.1° C. and magnetically stirred for up to 72-96 hours. Sample solutions were filtered through 0.45 μm cellulose acetate filters and analyzed by HPLC. The pH was measured and the equilibrium solids were characterized by DSC and PXRD.
Keu is proportional to the cocrystal solubility advantage over drug (SA=Scc/Sdrug), and for a 2:3 cocrystal is given by
[formula] […] Scc is lower than Sdrug when Keu is lower than 1.5. See is equal to Sdrug when Keu is equal to 1.5. The higher the Keu value, the higher is the cocrystal solubility advantage over drug (SA) and Scc.

## CC[C@@H]([C@H](C)O)n1ncn(-c2ccc(N3CCN(c4ccc(OC[C@@H]5CO[C@@](Cn6cncn6)(c6ccc(F)cc6F)C5)cc4)CC3)cc2)c1=O [PSZ, Posaconazole]
[1]
  Log P: 4.6
  aqueous solubility: < 1 µg/mL
[2]; FaSSIF
  Cmax: 4.5 ± 0.2 µM
  AUC (area under the dissolution curve): 745 ± 18 µM·min
  Final pH: 6.58 ± 0.01
[2]; FeSSIF
  Cmax: 7 ± 3 µM
  AUC (area under the dissolution curve): 1190 ± 104 µM·min
  Final pH: 4.95 ± 0.01
[3]
  fraction absorbed: < 30%
[4]; aqueous buffer, Blank FaSSIF, final pH 5.12
  solubility: 0.1 ± 0.04 µM (≈ 0.0701 µg/mL)
[4]; aqueous buffer, Blank FeSSIF, final pH 5.11
  solubility: 0.12 ± 0.02 µM (≈ 0.0841 µg/mL)
[4]; simulated gastric fluid, Blank FaSSGF, final pH 1.94
  solubility: 83 ± 4 µM (≈ 58.2 µg/mL)
[4]; FaSSIF, final pH 5.07
  solubility: 3.6 ± 0.8 µM (≈ 2.52 µg/mL)
[4]; FeSSIF, final pH 5.03
  solubility: 18 ± 5 µM (≈ 12.6 µg/mL)

## CCC(C(C)O)n1ncn(-c2ccc(N3CCN(c4ccc(OCC5COC(Cn6cncn6)(c6ccc(F)cc6F)C5)cc4)CC3)cc2)c1=O.CCC(C(C)O)n1ncn(-c2ccc(N3CCN(c4ccc(OCC5COC(Cn6cncn6)(c6ccc(F)cc6F)C5)cc4)CC3)cc2)c1=O.Nc1ccc(C(=O)O)cc1.Nc1ccc(C(=O)O)cc1.Nc1ccc(C(=O)O)cc1 (centres unmarked) [PSZ-4ABA, posaconazole-4-aminobenzoic acid (PSZ-4ABA) cocrystal]
[2]; FaSSIF
  RAUC (AUCPSZ-4ABA/AUCPSZ): 4.1 and 4.1 ± 0.3
  Cmax: 48 ± 4 µM
  AUC (area under the dissolution curve): 3052 ± 209 µM·min
  Final pH: 6.37 ± 0.01
[2]; FeSSIF
  RAUC (AUCPSZ-4ABA/AUCPSZ): 13 and 13 ± 4
  Cmax: 148 ± 3 µM
  AUC (area under the dissolution curve): 15,670 ± 4612 μM × min
  Final pH: 5.01 ± 0.01
[4]; Blank FaSSGF, final pH 1.94
  Keu ([coformer]eu/[drug]eu): 0.0028 ± 0.0002 ×10^5
  [4ABA]eu (coformer concentration at the eutectic point): 27.3 ± 0.4 mM
[4]; Blank FaSSGF, initial pH 1.60
  Final pH (pH at equilibrium): 1.94 ± 0.01
[4]; Blank FaSSIF, final pH 5.12
  Keu ([coformer]eu/[drug]eu): 1.7 ± 0.6 ×10^5
  [4ABA]eu (coformer concentration at the eutectic point): 17.4 ± 0.1 mM
[4]; Blank FaSSIF, initial pH 6.55
  Final pH (pH at equilibrium): 5.12 ± 0.03
[4]; Blank FeSSIF, final pH 5.11
  Keu ([coformer]eu/[drug]eu): 1.2 ± 0.3 ×10^5
  [4ABA]eu (coformer concentration at the eutectic point): 14.5 ± 0.2 mM
[4]; Blank FeSSIF, initial pH 5.03
  Final pH (pH at equilibrium): 5.11 ± 0.01
[4]; FaSSIF, final pH 5.07
  Keu ([coformer]eu/[drug]eu): 0.06 ± 0.01 ×10^5
  [4ABA]eu (coformer concentration at the eutectic point): 20.2 ± 0.4 mM
[4]; FaSSIF, initial pH 6.50
  Final pH (pH at equilibrium): 5.07 ± 0.04
[4]; FeSSIF, final pH 5.03
  Keu ([coformer]eu/[drug]eu): 0.010 ± 0.003 ×10^5
  [4ABA]eu (coformer concentration at the eutectic point): 17.3 ± 0.5 mM
[4]; FeSSIF, initial pH 5.03
  Final pH (pH at equilibrium): 5.03 ± 0.14
[4]; pH increases from 1.9 to 5.1
  decrease of Sco (cocrystal solubility) with pH: 20 times
